The nature of data set [1]: Dark toxicity in mouse Colon 26 cells expressing p-glycoprotein assessed as cell viability incubated for 1 hr followed by incubated for 48 hrs in fresh medium by sulforhodamine B assay. Conditions: read-out: LD50. Type of data set: cell-based.
Data set [2] relates to Colon 26. Put plainly: Photo-toxicity in mouse Colon 26 cells assessed as cell viability at 0.5 Jcm'-2 of continuous illumination with 630 +/- 2 nm laser light incubated for 48 hrs by sulforhodamine B assay. The class given is functional, cell-based. As to conditions: for EC50: Colon 26, 48 h. A general note: The SRB assay estimates cell density from bound dye.
In data set [3] the test system is Colon 26. Nature of the data set: Photo-toxicity in mouse Colon 26 cells assessed as cell viability at 1 Jcm'-2 of continuous illumination with 630 +/- 2 nm laser light incubated for 48 hrs by sulforhodamine B assay. The class given is functional, cell-based. Conditions: for EC50: Colon 26, 48 h.
The nature of data set [4]: Ratio of LD50 for dark toxicity in mouse Colon 26 cells to EC50 for photo-toxicity in mouse Colon 26 cells at 15 Jcm'-2 of continuous illumination with 630 +/- 2 nm laser light. Conditions: read-out: Ratio LD50/EC50. The class given is cell-based.
Data set [5] is described as follows: n-Octanol-water partition coefficient, log P of the compound at pH 7.4 by shake flask method. Type of data set: physicochemical.
Data set [6] in a line: Ratio of LD50 for dark toxicity in mouse Colon 26 cells to EC50 for photo-toxicity in mouse Colon 26 cells at 1 Jcm'-2 of continuous illumination with 630 +/- 2 nm laser light. Type of data set: cell-based. As to conditions: read-out: Ratio LD50/EC50.
Data set [7] concerns Colon 26. Put plainly: Photo-toxicity in mouse Colon 26 cells assessed as cell viability up to 5 Jcm'-2 of continuous illumination with 630 +/- 2 nm laser light incubated for 48 hrs by sulforhodamine B assay. As to conditions: Colon 26, 48 h. Type of data set: functional, cell-based.
Data set [8] deals with Colon 26. Put plainly: Drug uptake in mouse Colon 26 cells expressing p-glycoprotein at 2 x 10^-7 M after 15 mins by flow cytometry in presence of 1 x 10^-4 M of verapamil. Type of data set: ADME, cell-based. Conditions: colon 26, 0.25 h, 0.2 µM.
The test system of data set [9] is Colon 26. Put plainly: Drug uptake in mouse Colon 26 cells expressing p-glycoprotein at 2 x 10^-7 M after 15 mins by flow cytometry in absence of verapamil. Type of data set: ADME, cell-based. Conditions: colon 26, 0.25 h, 0.2 µM.
Data set [10] is described as follows: Cellular uptake in mitochondria of mouse Colon 26 cells expressing p-glycoprotein using MitoTracker Green after 15 mins by flow cytometry. As to conditions: colon 26, 0.25 h. The class given is ADME.

Calls of active or inactive are those of the source. The rule behind the calls is not given here.

In general, logD refers to lipophilicity at a set pH, counting ionised and neutral species. Low values mean a more hydrophilic compound, high ones a more lipophilic compound. For orientation: EC50 means the concentration at which the effect is half-maximal.

`CN(C)c1ccc(-c2cc(-c3ccccc3)[s+]c(-c3ccc(N)cc3)c2)cc1`: the CC50 at 1 h in [1] was 0.07 µM. For the same molecule, the outcome in the data set with Colon 26 [2] and in the data set on Colon 26 [3] was inactive.

Regarding `CN(C)c1ccc(-c2cc(-c3ccccc3)[se+]c(-c3ccc(N)cc3)c2)cc1`, in data set [1], the CC50 at 1 h amounted to 2.6 µM. For the same molecule, in data set [4], the selectivity ratio came to 13.

In [5], `S=C(c1ccc(C2=c3cc4c5c(c3[Se]c3c2cc2c6c3CCCN6CCC2)CCC[N+]=5CCC4)s1)N1CCCCC1.[Cl-]` registered a logD of 4.1. Besides, the CC50 at 1 h in data set [1] amounted to 1.53 µM. For the same molecule, the EC50 in the data set on Colon 26 [2] was 0.056 µM; with Colon 26 [3], 0.029 µM; in the data set with Colon 26 [7], 0.05 µM. For the same molecule, the selectivity ratio in data set [6] was determined as 53. Also, in the data set on Colon 26 [8], the “fold change (FC)” value is 2.9. The Drug uptake entry (with Colon 26 [9]; in data set [10]) was “Active” each time.

On to `O=C(c1ccc(C2=c3cc4c5c(c3[Se]c3c2cc2c6c3CCCN6CCC2)CCC[N+]=5CCC4)s1)N1CCCCC1.[Cl-]`, for which, in data set [5], the logD is 3.71. In [1], the CC50 at 1 h is 2.24 µM. Moreover, the EC50 in the data set with Colon 26 [2] was determined as 0.079 µM; in the data set with Colon 26 [3], 0.0388 µM; in the data set on Colon 26 [7], 0.05 µM. The selectivity ratio in data set [6] came out at 58. Moreover, the “fold change (FC)” value in the data set on Colon 26 [8] came out at 7.6. For the same molecule, the Drug uptake entry (in the data set on Colon 26 [9]; in [10]) was “Active” each time.

For `CN(C)c1ccc(-c2cc(-c3ccc(N)cc3)[se+]c(-c3ccc(N)cc3)c2)cc1`, in data set [4], the selectivity ratio was 3.8.
